In PMC3430861, “The pharmacological profile of ELIC, a prokaryotic GABA-gated receptor” (Neuropharmacology, 2012):

What was measured:
ELIC [1] = biological target: T1, ELIC (Dickeya chrysanthemi, UniProt P0C7B7); experiment: cell-based; assay type: cell-based, Erwinia chrysanthemi
T1 sequence (P0C7B7 8-321): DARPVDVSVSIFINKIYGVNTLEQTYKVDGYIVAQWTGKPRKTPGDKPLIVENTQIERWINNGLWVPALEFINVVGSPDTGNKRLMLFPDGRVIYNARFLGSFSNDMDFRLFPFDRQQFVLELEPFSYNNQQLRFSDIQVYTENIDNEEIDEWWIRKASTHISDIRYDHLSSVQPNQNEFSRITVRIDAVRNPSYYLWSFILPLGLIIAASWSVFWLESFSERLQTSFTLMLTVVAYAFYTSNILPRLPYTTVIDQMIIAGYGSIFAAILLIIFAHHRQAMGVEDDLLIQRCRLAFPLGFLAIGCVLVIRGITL
Method: Xenopus laevis oocyte-positive females were purchased from NASCO (Fort Atkinson, Wisconsin, USA) and maintained according to standard methods. Harvested stage V–VI Xenopus oocytes were washed in four changes of ND96 (96 mM NaCl, 2 mM KCl, 1 mM MgCl2, 5 mM HEPES, pH 7.5), de-folliculated in 1.5 mg ml^−1 collagenase Type 1A for approximately 2 h, washed again in four changes of ND96 and stored in ND96 containing 2.5 mM sodium pyruvate, […], 0.7 mM theophylline.
The ELIC sequence (Genbank accession number POC7B7) was purchased from Genscript as a synthetic gene with optimized codon usage for expression in Escherichia coli. […] Stage V and VI oocytes were injected with 20 ng cRNA, and currents recorded 1–3 days post-injection.

ELIC [2] = biological target: T1, ELIC; experiment: Inhibition of cysteamine-induced ELIC responses; assay type: cell-based, Erwinia chrysanthemi; conditions: data not shown
GLIC = tested on: GLIC; set-up: method as in Alqazzaz et al., 2011; conditions: comparison ELIC vs GLIC; ref Alqazzaz et al., 2011; cited from earlier work

CC(N)C12CC3CC(CC(C3)C1)C2 (stereo not drawn) [Rimantadine]
inhibition of ELIC (yes/no) (ELIC [1]): inhibiting both receptors
nH (ELIC [1]): 1.0 ± 0.2
IC50 (ELIC [1]; IC50): 54 µM
IC50 (ELIC [1]; pIC50 (Mean ± SEM)): 53.7 µM
inhibition of cysteamine-induced responses compared to inhibition of GABA-induced responses (ELIC [2]): no significant differences
inhibition of GLIC (yes/no) (GLIC): inhibiting both receptors
